Assay results published in patent publication US20250042880A1 (UNIVERSITY OF KENTUCKY RESEARCH FOUNDATION, priority 2021, published 2025).

Assays:
[1] = system: LS174T cells; test: Cell proliferation inhibition assay, LS174T; assay type: cell-based; conditions: for IC50: Homo sapiens, LS174T, 120 h, 5 days, viable cells counted
Description: (§1) Cell proliferation inhibition assay-Cell proliferation inhibition assay was performed as previously reported (48). All compounds to be tested were dissolved at 10 mM in DMSO. The cells were seeded into 12-well plates at a density of 40,000 cells per well in 1 mL of culture medium and were cultured overnight at 37° C. Either 1 μL of the compounds or the vehicle control (DMSO) was added to the cells. After 5 days, the medium was removed, and 200 μL of 0.25% trypsin was added. The cells were resuspended in 800 μL phosphate-buffered saline (PBS) and counted with Vi-CELL XR 2.03 (Beckman Coulter, Inc. USA). The ratio R of the number of viable cells in the compound-treated group to the number of viable cells in the DMSO-treated group was called relative growth rate, and the growth inhibition was calculated as (1−R)*100.
(§2) Cell proliferation inhibition assay was conducted according to a previous report (48). The cells were split into 12-well plates at a density of 40,000 cells per well in 1 mL of culture medium and were cultured overnight at 37° C. Either 1 μL of the compounds dissolved at 10 mmol/L in DMSO or the vehicle control (DMSO) was added to the cells. After 5 days, removed the medium, and 200 μL of 0.25% trypsin was added. The cells were resuspended in phosphate-buffered saline (PBS) and counted with Vi-CELL XR 2.03 (Beckman Coulter, Inc. USA). The ratio R of the number of viable cells in the compound treatment group to the number of viable cells in the DMSO treatment group was defined as the relative growth rate, and the growth inhibition rate was calculated as (1−R)*100.

[2] = system: LS174T xenografts; test: LS174T xenografts in Rag1 mice; assay type: in vivo, mouse; conditions: DBI-6 40 mg/kg/day IP, BAY-876 3 mg/kg oral, 12 days
Source text: Rag1 mice of 6 to 8 weeks of age were kindly provided by Institute of Genetics and Developmental Biology, Chinese Academy of sciences. LS174T cells in exponential growth phase were harvested and mixed with an equal volume of Matrigel (Corning, Glendale, Arizona). Each mouse was subcutaneously injected on the lower flanks with 2×10^6 cells. Tumor cell-injected mice were randomly divided into control and treatment groups when tumors were established and reached an average volume of 100 mm^3 (3 male and 3 female mice/group, two tumors on each mouse).
After tumors were established, DBI-6 was formulated in a mixture of ethanol (5%), 20% solutol and 20% Cremophor EL (50%) and Citric acid (45%; 50 mmol/L, pH4.5) and was daily intraperitoneally administered to the DBI-6 group at dose of 40 mg/kg mouse body weight. BAY-876 was dissolved in DMSO (10%), PEG400 (25%), Tween 80 (5%) and PBS (60%) and was given to the mice by gavage feeding to the BAY-876 group at a daily dose of 3 mg/kg mouse body weight. […]
The tumor sizes and mouse weights were measured every three days with calipers, and the tumor volume (Length×width^2/2) were calculated. […] Then the tumor sections were analyzed with H&E and Ki-67 staining. Plasma was collected and analyzed with the assay kit (Jiancheng Bioengineering Institute, Nanjing, China) according to the manufacturer's protocol. […]

[3] = system: HCT116 cells; test: Cell proliferation inhibition assay, HCT116; assay type: cell-based; conditions: Homo sapiens, HCT-116, 120 h; 5 days, viable cells counted
Description: as §1, §2

[4] = system: LS174T cells; test: Apoptosis by flow cytometry (Annexin V-FITC/PI); assay type: cell-based; conditions: 24 h, DBI-6 3 μM, BAY-876 1 μM, DMSO 17.28%
Description: LS174T cells were cultured in 6-well plates at 37° C. for 24 hours. 3 μmol/L DBI-6 or 1 μmol/L BAY-876 were added to the cells and incubated for 24 hours. Cells of combination therapy group were treated with both DBI-6 and BAY-876. Then cells were harvested and washed with cold PBS twice and resuspended in 500 μL Binding Buffer. SubsequenμLy, the cells were stained with Annexin V-FITC and propidium iodide (PI) and incubated in dark for 5 minutes. The percentages of apoptosis and necrosis were determined by flow cytometry (BeckmanCoulter, Brea, CA, USA).

| SMILES | IC50 [1] | tumor growth [2] | IC50 [3] | apoptosis rate (percentage of apoptotic cells) [4] | inhibition of proliferation of LS174T cells [1] |
| --- | --- | --- | --- | --- | --- |
| O=c1c(-c2ccc(Cl)c(Cl)c2)coc2cc(OCCN3CCN(CCO)CC3)ccc12 [DBI-6, 3-(3,4-dichlorophenyl)-7-(2-(4-(2-hydroxyethyl)piperazin-1-yl)ethoxy)-4H-chromen-4-one] | 1140 nM | Tumor growth was inhibited | 530 nM | 30.61% |  |
| Cc1c(NC(=O)c2cc(C(N)=O)nc3cc(F)ccc23)c(C(F)(F)F)nn1Cc1ccc(C#N)cc1 [BAY-876, N^4-[1-(4-cyanobenzyl)-5-methyl-3-(trifluoromethyl)-1H-pyrazol-4-yl]-7-fluoroquinoline-2,4-dicarboxamide] | 130 nM | Tumor growth was inhibited | 170 nM | 34.57% | inhibited the proliferation of these cell lines at nanomolar concentrations |
